In patent US5990158A, “Carboxylic acid derivatives, method of manufacturing the same and therapeutic agents containing these compounds” (Kotobuki Seiyaku Co., Ltd., priority 1996, dated 1999):
pIC50: −log10 of the molar value.

Key:
[1] = molecular target: T1, MMP-9 (gelatinase B) (Homo sapiens, UniProt P14780); assay: MMP-9 (gelatinase B) inhibitory activity, FITC-labeled type IV collagen degradation; assay type: biochemical; details: 50% inhibition of collagen type IV degradation; MMP-9 derived from human fibrosarcoma; 42° C., 4 h
T1 construct: purchased Yagai Co. Ltd; host or cells: human fibrosarcoma
Method: (§1) Experiment 2: MMP-2 (gelatinase A) and MMP-9 (gelatinase B) inhibitory activities.
(§2) Pro MMP-2 was obtained from culture medium separated from human pro-MMP-2 cDNA tranfected COS-1 cells. It was activated by 1 mM (p-aminophenyl)mercury acetic acid, and MMP-9, derived human fibrosarcome,was purchased from Yagai Co. Ltd. Inhibition of both enzyme activities were estimated by enzyme assay using type IV collagenase activity assay kit (Yagai Co. Ltd., Biswaz, C. et al., J. Cell.Biochem., 28, 39 (1984)). MMP-2 or MMP-9 (0.01 U/ml), test compound (several concentrations), and FITC-labeled type IV collagen (derived bovine placenta, 25 μg) were incubated in 100 μl of 0.05M Tris - HCl buffer (pH 7.5) containing 200 mM NaCl and 5 mM CaCl2 at 42° C. for 4 h. Inhibitory activity of compound was evaluated by same as that of MMP-1 assay. Unchanged type IV collagen was precipitated by centrifugation, and the degradation percent of substrate was calculated by comparison with a fluorescence intensity of heat denatured substrate as 100%. Inhibition of enzyme activity was expressed as an IC50 value which was the concentration of test compound necessary to produce 50% inhibition of collagen type IV degradation by enzyme.

[2] = molecular target: T2, MMP-2 (gelatinase A) (Homo sapiens, UniProt P08253); assay: MMP-2 (gelatinase A) inhibitory activity, FITC-labeled type IV collagen degradation; assay type: biochemical; details: 50% inhibition of collagen type IV degradation; activated pro MMP-2 from transfected COS-1 cells; 42° C., 4 h
T2 construct: made in house; host or cells: COS-1 cells transfected with human pro-MMP-2 cDNA (secreted into culture medium)
T2 sequence (P08253 110-660): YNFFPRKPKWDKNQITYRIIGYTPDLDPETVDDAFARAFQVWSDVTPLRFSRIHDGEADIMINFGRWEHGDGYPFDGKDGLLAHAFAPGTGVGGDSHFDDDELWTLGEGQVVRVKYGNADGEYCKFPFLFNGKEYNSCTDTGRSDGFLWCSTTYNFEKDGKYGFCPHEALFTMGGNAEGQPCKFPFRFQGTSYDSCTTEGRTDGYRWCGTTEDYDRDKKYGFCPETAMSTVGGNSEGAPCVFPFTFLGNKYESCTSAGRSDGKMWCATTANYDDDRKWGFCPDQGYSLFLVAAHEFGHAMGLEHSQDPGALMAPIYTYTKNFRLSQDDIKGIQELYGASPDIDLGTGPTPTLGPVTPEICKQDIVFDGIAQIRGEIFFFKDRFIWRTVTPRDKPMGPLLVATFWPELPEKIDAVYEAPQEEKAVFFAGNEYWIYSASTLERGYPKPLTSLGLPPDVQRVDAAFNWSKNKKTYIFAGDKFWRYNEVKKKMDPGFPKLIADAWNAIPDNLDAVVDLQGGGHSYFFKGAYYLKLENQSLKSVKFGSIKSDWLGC
Method: as §1, §2

T1 sequence (P14780 94-707): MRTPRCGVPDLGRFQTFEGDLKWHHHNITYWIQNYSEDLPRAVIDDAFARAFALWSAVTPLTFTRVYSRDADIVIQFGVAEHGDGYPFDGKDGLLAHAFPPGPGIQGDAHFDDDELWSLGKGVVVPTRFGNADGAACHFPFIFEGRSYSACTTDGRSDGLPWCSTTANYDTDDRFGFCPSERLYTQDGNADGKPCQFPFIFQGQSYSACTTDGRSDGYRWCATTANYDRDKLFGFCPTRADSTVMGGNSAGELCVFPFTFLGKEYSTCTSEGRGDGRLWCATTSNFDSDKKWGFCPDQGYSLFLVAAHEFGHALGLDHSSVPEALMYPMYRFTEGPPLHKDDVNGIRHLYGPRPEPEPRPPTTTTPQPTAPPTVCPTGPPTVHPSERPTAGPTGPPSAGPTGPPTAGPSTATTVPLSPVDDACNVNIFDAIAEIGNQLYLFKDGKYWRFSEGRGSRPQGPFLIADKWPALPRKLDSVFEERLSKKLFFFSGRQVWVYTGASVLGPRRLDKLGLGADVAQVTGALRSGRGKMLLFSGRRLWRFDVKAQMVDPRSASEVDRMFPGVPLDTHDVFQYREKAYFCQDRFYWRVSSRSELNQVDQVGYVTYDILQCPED

pIC50 [1] | pIC50 [2] | SMILES
6.00 | 6.74 | C=CCOc1ccc(OCCCC[C@H](CC(=O)O)C(=O)N[C@@H](Cc2ccccc2)C(=O)NC)cc1 [Compound 16, N-[(2R)-2-(1'-Carboxymethyl)-6-[(4-allyloxyphenyl)oxy]hexanoyl]-L-phenylananine N-Methylamide]
8.54 | 7.80 | COc1ccc(C[C@H](NC(=O)[C@H](CCCOc2ccc(OC)cc2)CC(=O)O)C(=O)NCCS(N)(=O)=O)cc1 [Compound 20]
8.64 | 7.89 | CNC(=O)[C@H](Cc1ccccc1)NC(=O)[C@H](CCOc1ccc(OC)cc1)CC(=O)NO [Compound 38, N-[(2R)-2-(2'-Hydroxyamino-2'-oxo-ethyl)-4-[(4-methoxyphenyl)oxy]butyloyl]-L-phenylalanine N-Methylamide]
9.14 | 8.40 | CCOc1ccc(OCCCC[C@H](CC(=O)NO)C(=O)N[C@@H](Cc2ccccc2)C(=O)NC)cc1 [Compound 45, N-[(2R)-2-(2'-Hydroxyamino-2'-oxo-ethyl)-6-[(4-ethoxy-phenyl)oxy]hexanoyl]-L-phenylalanine N-Methylamide]
7.28 | 6.12 | CNC(=O)[C@@H](NC(=O)[C@H](CCc1ccc2cccccc1-2)CC(=O)NO)C(C)(C)C [Compound 34, N-[(2R)-2-(2'-Hydroxyamino-2'-oxo-ethyl)-4-(azulene-1-yl)-butyloyl]-L-tert-leucine N-Methylamide]
7.28 | 6.80 | CNC(=O)[C@H](Cc1ccc(OC)cc1)NC(=O)[C@H](CCCCOc1ccc(OC)cc1)CC(=O)O [Compound 21, (2S)-2-[(2R)-2-(1'-Carboxymethyl)-6-[(4-methoxyphenyl)-oxy]hexanoyl]amino-3-(4-methoxy)phenylpropanoylmethylamide]
6.80 | 6.60 | C=CCOc1ccc(OCCCC[C@H](CC(=O)NO)C(=O)N[C@@H](Cc2ccccc2)C(=O)NC)cc1 [Compound 46, N-[(2R)-2-(2'-Hydroxyamino-2'-oxo-ethyl)-6-[(4-allyloxy-phenyl)oxy]hexanoyl]-L-phenylalanine N-Methylamide]
6.44 | 6.00 | CCOc1ccc(C[C@H](NC(=O)[C@H](CCc2ccc3cccccc2-3)CC(=O)O)C(=O)NC)cc1 [Compound 6, (2S)-2-[(2R)-2-(1'-Carboxymethyl)-4-(azulene-1-yl)butyroyl]amino-3-(4-ethoxy)phenylpropanoyl methylamide]
5.60 | 5.89 | CNC(=O)[C@H](Cc1ccccc1)NC(=O)[C@H](CCCc1ccc2cccccc1-2)CC(=O)NO [Compound 35, N-[(2R)-2-(2'-Hydroxyamino-2'-oxo-ethyl)-5-(azulene-1-yl)-pentanoyl]-L-phenylalanine N-Methylamide]
8.02 | 6.85 | CCOc1ccc(C[C@H](NC(=O)[C@H](CCCOc2ccc(OC)cc2)CC(=O)O)C(=O)NC)cc1 [Compound 22, (2S)-2-[(2R)-2-(1'-Carboxymethyl)-5-[(4-methoxyphenyl)-oxy]pentanoyl]amino-3-(4-ethoxy)phenylpropanoylmethylamide]
7.62 | 6.74 | CCOc1ccc(C[C@H](NC(=O)[C@H](CCc2ccc3cccccc2-3)CC(=O)NO)C(=O)NC)cc1 [Compound 36, (2S)-2-[(2R)-2-(2'-Hydroxyamino-2'-oxo-ethyl)-4-(azulene-1-yl)butyloyl]amino-3-(4-ethoxy)phenylpropanoylmethylamide]
7.74 | 6.80 | CNC(=O)[C@H](Cc1ccc(OC)cc1)NC(=O)[C@H](CCc1ccc2cccccc1-2)CC(=O)NO [Compound 33, (2S)-2-[(2R)-2-(2'-Hydroxyamino-2'-oxo-ethyl)-4-(azulene-1-yl)butyloyl]amino-3-(4-methoxy)phenylpropanoylmethylamide]
